Test results reported in patent US20230278972A1, “SUBSTITUTED HALOALKYL SULFONANILIDE HERBICIDES” (FMC Corporation, priority 2020, published 2023).

Legend:
Format in all cases: in vivo
[1] = system: ragweed (common ragweed, Ambrosia artemisiifolia); assay: Test A1 postemergence, ragweed; conditions: Postemergence
Method in brief: (§1)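 Both timings started from seed in a loam-sand blend. Preemergence pots got a directed soil application immediately; postemergence pots were sprayed when seedlings had one or two leaves and stood 2–10 cm. Each compound was prepared in a non-phytotoxic solvent plus surfactant.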

[2] = system: rice (Oryza sativa); assay: Test B1 flooded paddy test, rice; conditions: 250 g ai/ha, Flood, applied to paddy water, 2-leaf stage, visually evaluated after 10 to 14 days
From the text: (§2) A dash (-) response means no test result.

[3] = system: Oat, Wild (wild oat, Avena fatua); assay: Test A1 preemergence, Oat, Wild
Method in brief: (§3)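 Pre: seeds in loam/sand blend, directed soil spray. Post: potted plants, same soil, 2–10 cm, 1–2 leaf stage. Chemicals in non-phytotoxic solvent + surfactant for both.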

[4] = system: goosegrass (Eleusine indica); assay: Test A1 postemergence, goosegrass; conditions: Postemergence
Method in brief: as §1

[5] = system: wheat (Triticum aestivum); assay: Test A1 postemergence, wheat; conditions: Postemergence
Method in brief: as §1

[6] = system: Pigweed, Palmer (palmer amaranth, palmer pigweed, Amaranthus palmeri); assay: Test A1 preemergence, Pigweed, Palmer
Method in brief: as §3

[7] = system: soybean (Glycine max); assay: Test A1 preemergence, soybean
Method in brief: as §3

[8] = system: Ryegrass, Italian (Italian ryegrass, Lolium multiflorum); assay: Test A1 postemergence, Ryegrass, Italian; conditions: Postemergence
Method in brief: as §1

[9] = system: goosegrass (Eleusine indica); assay: Test A1 preemergence, goosegrass
Method in brief: as §3

[10] = system: blackgrass (Alopecurus myosuroides); assay: Test A1 preemergence, blackgrass
Method in brief: as §3

[11] = system: Oat, Wild (wild oat, Avena fatua); assay: Test A1 postemergence, Oat, Wild; conditions: Postemergence
Method in brief: as §1

[12] = system: ragweed (common ragweed, Ambrosia artemisiifolia); assay: Test A1 preemergence, ragweed
Method in brief: as §3

[13] = system: Pigweed, Palmer (palmer amaranth, palmer pigweed, Amaranthus palmeri); assay: Test A1 postemergence, Pigweed, Palmer; conditions: Postemergence
Method in brief: as §1

[14] = system: wheat (Triticum aestivum); assay: Test A1 preemergence, wheat
Method in brief: as §3

[15] = system: kochia (Bassia scoparia); assay: Test A1 postemergence, kochia; conditions: Postemergence
Method in brief: as §1

[16] = system: corn (Zea mays); assay: Test A1 preemergence, corn
Method in brief: as §1

[17] = system: soybean (Glycine max); assay: Test A1 postemergence, soybean; conditions: Postemergence
Method in brief: as §1

[18] = system: corn (Zea mays); assay: Test A1 postemergence, corn; conditions: Postemergence
Method in brief: as §3

[19] = system: Ryegrass, Italian (Italian ryegrass, Lolium multiflorum); assay: Test A1 preemergence, Ryegrass, Italian
Method in brief: as §3

[20] = system: Foxtail, Giant (giant foxtail, Setaria faberi); assay: Test A1 preemergence, Foxtail, Giant
Method in brief: as §3

[21] = system: kochia (Bassia scoparia); assay: Test A1 preemergence, kochia
Method in brief: as §3

[22] = system: horseweed (Erigeron canadensis); assay: Test A1 postemergence, horseweed; conditions: Postemergence
From the text: Seeds of plant species selected from, blackgrass (Alopecurus myosuroides), corn (Zea mays), Foxtail, Giant (giant foxtail, Setaria faberi), goosegrass (Eleusine indica), kochia (Bassia scoparia), Oat, Wild (wild oat, Avena fatua), Pigweed, Palmer (palmer amaranth, palmer pigweed, Amaranthus palmeri), ragweed (common ragweed, Ambrosia artemisiifolia), Ryegrass, Italian (Italian ryegrass, Lolium multiflorum), soybean (Glycine max), and wheat (Triticum aestivum) were planted into a blend of loam soil and sand and treated preemergence with a directed soil spray using test chemicals formulated in a non-phytotoxic solvent mixture which included a surfactant. At the same time, plants selected from these crop and weed species and also galium (catchweed bedstraw, Galium aparine) and horseweed (Erigeron canadensis) were planted in pots containing the same blend of loam soil and sand and treated with postemergence applications of test chemicals formulated in the same manner. Plants ranged in height from 2 to 10 cm and were in the one- to two-leaf stage for the postemergence treatment. […] A dash (-) response means no test result.

[23] = system: barnyardgrass (Echinochloa crus-galli); assay: Test B1 flooded paddy test, barnyardgrass; conditions: 250 g ai/ha, Flood, applied to paddy water, 2-leaf stage, visually evaluated after 10 to 14 days
From the text: as §2

[24] = system: galium (catchweed bedstraw, Galium aparine); assay: Test A1 postemergence, galium; conditions: Postemergence
Method in brief: as §1

[25] = system: ducksalad (Heteranthera limosa); assay: Test B1 flooded paddy test, ducksalad; conditions: 250 g ai/ha, Flood, applied to paddy water, 2-leaf stage, visually evaluated after 10 to 14 days
From the text: as §2

[26] = system: blackgrass (Alopecurus myosuroides); assay: Test A1 postemergence, blackgrass; conditions: Postemergence, 0 to 100 scale (0 no effect, 100 complete control)
Method in brief: as §1

[27] = system: Foxtail, Giant (giant foxtail, Setaria faberi); assay: Test A1 postemergence, Foxtail, Giant; conditions: Postemergence
Method in brief: as §1

[28] = 31 g ai/ha, 0 to 100 scale (0 no effect, 100 complete control), 10 days
[29] = 31 g ai/ha, 0 to 100 scale (0 no effect, 100 complete control)
[30] = 125 g ai/ha, 0 to 100 scale, 0 no effect, 100 complete control

Cc1cc(C)c(N(COC(=O)N(C)C)S(=O)(=O)C(F)(F)F)cc1C1=NOC2CCCC12 (stereo not drawn) [Compound 317]
10: Plant response rating, Ragweed [1, 28]
0: Plant response rating, Ragweed ([1]; 125 g ai/ha, 0 to 100 scale) | Plant response rating, Rice (0 to 100 scale, 0 is no effect, 100 is complete control) [2] | Plant response rating, Oat, Wild [3, 29] | Plant response rating, Oat, Wild [3, 30] | Plant response rating, Goosegrass [4, 28] | Plant response rating, Goosegrass ([4]; 125 g ai/ha, 0 to 100 scale) | Plant response rating, Wheat [5, 28] | Plant response rating, Wheat ([5]; 125 g ai/ha, 0 to 100 scale) | Plant response rating, Pigweed, Palmer [6, 29] | Plant response rating, Pigweed, Palmer [6, 30] | Plant response rating, Soybean [7, 29] | Plant response rating, Soybean [7, 30] | Plant response rating, Ryegrass, Italian [8, 28] | Plant response rating, Ryegrass, Italian ([8]; 125 g ai/ha, 0 to 100 scale) | Plant response rating, Goosegrass [9, 29] | Plant response rating, Goosegrass [9, 30] | Plant response rating, Blackgrass [10, 29] | Plant response rating, Blackgrass [10, 30] | Plant response rating, Oat, Wild [11, 28] | Plant response rating, Oat, Wild ([11]; 125 g ai/ha, 0 to 100 scale) | Plant response rating, Ragweed [12, 29] | Plant response rating, Ragweed [12, 30] | Plant response rating, Pigweed, Palmer [13, 28] | Plant response rating, Pigweed, Palmer ([13]; 125 g ai/ha, 0 to 100 scale) | Plant response rating, Wheat [14, 29] | Plant response rating, Wheat [14, 30] | Plant response rating, Kochia [15, 28] | Plant response rating, Kochia ([15]; 125 g ai/ha, 0 to 100 scale) | Plant response rating, Corn [16, 29] | Plant response rating, Corn [16, 30] | Plant response rating, Soybean [17, 28] | Plant response rating, Soybean ([17]; 125 g ai/ha, 0 to 100 scale) | Plant response rating, Corn [18, 28] | Plant response rating, Corn ([18]; 125 g ai/ha, 0 to 100 scale) | Plant response rating, Ryegrass, Italian [19, 29] | Plant response rating, Ryegrass, Italian [19, 30] | Plant response rating, Foxtail, Giant [20, 29] | Plant response rating, Foxtail, Giant [20, 30] | Plant response rating, Kochia [21, 29] | Plant response rating, Kochia [21, 30] | Plant response rating, Horseweed [22, 28] | Plant response rating, Horseweed ([22]; 125 g ai/ha, 0 to 100 scale) | Plant response rating, Barnyardgrass (0 to 100 scale, 0 is no effect, 100 is complete control) [23] | Plant response rating, Galium [24, 28] | Plant response rating, Galium ([24]; 125 g ai/ha, 0 to 100 scale) | Plant response rating, Blackgrass ([26]; 31 g ai/ha, 10 days) | Plant response rating, Blackgrass ([26]; 125 g ai/ha) | Plant response rating, Foxtail, Giant [27, 28] | Plant response rating, Foxtail, Giant ([27]; 125 g ai/ha, 0 to 100 scale)
30: Plant response rating, Ducksalad (0 to 100 scale, 0 is no effect, 100 is complete control) [25]

Cc1c(C(=O)N2CCCCC2)cc(N(COC(=O)C(C)(C)C)S(=O)(=O)C(F)(F)F)c(C)c1C [Compound 329, [[(Trifluoromethyl)sulfonyl][2,3,4-trimethyl-5-(1-piperidinylcarbonyl)phenyl]amino]methyl 2,2-dimethylpropanoate]
40: Plant response rating, Ragweed [1, 28]
30: Plant response rating, Goosegrass ([4]; 125 g ai/ha, 0 to 100 scale) | Plant response rating, Foxtail, Giant [20, 29] | Plant response rating, Kochia [21, 30] | Plant response rating, Blackgrass ([26]; 125 g ai/ha)
20: Plant response rating, Rice (0 to 100 scale, 0 is no effect, 100 is complete control) [2] | Plant response rating, Goosegrass [9, 29] | Plant response rating, Kochia ([15]; 125 g ai/ha, 0 to 100 scale) | Plant response rating, Horseweed [22, 28]
95: Plant response rating, Barnyardgrass (0 to 100 scale, 0 is no effect, 100 is complete control) [23]
70: Plant response rating, Ragweed ([1]; 125 g ai/ha, 0 to 100 scale) | Plant response rating, Ragweed [12, 30] | Plant response rating, Foxtail, Giant ([27]; 125 g ai/ha, 0 to 100 scale)
50: Plant response rating, Pigweed, Palmer [6, 30] | Plant response rating, Foxtail, Giant [20, 30] | Plant response rating, Galium [24, 28]
60: Plant response rating, Ragweed [12, 29] | Plant response rating, Soybean [17, 28] | Plant response rating, Soybean ([17]; 125 g ai/ha, 0 to 100 scale) | Plant response rating, Ducksalad (0 to 100 scale, 0 is no effect, 100 is complete control) [25]
80: Plant response rating, Galium ([24]; 125 g ai/ha, 0 to 100 scale)
100: Plant response rating, Goosegrass [9, 30]
0: Plant response rating, Oat, Wild [3, 29] | Plant response rating, Oat, Wild [3, 30] | Plant response rating, Goosegrass [4, 28] | Plant response rating, Wheat [5, 28] | Plant response rating, Wheat ([5]; 125 g ai/ha, 0 to 100 scale) | Plant response rating, Soybean [7, 29] | Plant response rating, Soybean [7, 30] | Plant response rating, Ryegrass, Italian [8, 28] | Plant response rating, Ryegrass, Italian ([8]; 125 g ai/ha, 0 to 100 scale) | Plant response rating, Blackgrass [10, 29] | Plant response rating, Blackgrass [10, 30] | Plant response rating, Oat, Wild [11, 28] | Plant response rating, Oat, Wild ([11]; 125 g ai/ha, 0 to 100 scale) | Plant response rating, Wheat [14, 29] | Plant response rating, Wheat [14, 30] | Plant response rating, Corn [16, 29] | Plant response rating, Corn [16, 30] | Plant response rating, Corn [18, 28] | Plant response rating, Corn ([18]; 125 g ai/ha, 0 to 100 scale) | Plant response rating, Ryegrass, Italian [19, 29] | Plant response rating, Ryegrass, Italian [19, 30] | Plant response rating, Kochia [21, 29] | Plant response rating, Blackgrass ([26]; 31 g ai/ha, 10 days)
90: Plant response rating, Horseweed ([22]; 125 g ai/ha, 0 to 100 scale)
10: Plant response rating, Pigweed, Palmer [6, 29] | Plant response rating, Pigweed, Palmer [13, 28] | Plant response rating, Pigweed, Palmer ([13]; 125 g ai/ha, 0 to 100 scale) | Plant response rating, Kochia [15, 28] | Plant response rating, Foxtail, Giant [27, 28]
